US6124136A, “Method of monitoring compliance with methadone treatment program” (U. D. Testing, Inc., priority 1993, dated 2000)
Several values for one entry are separate records, joined by “and”; a condition that tells them apart may be missing. Identical values can stand only once.

Tests used:
[1] = Clinical course of migraine/headache in chronic pain patients (Cases #1 and #2); assay type: in vivo, human
[2] = Plasma methadone concentration, p, calculated from spot urine (urine methadone, pH and specific gravity); settings: patient one, Tables 3 and 4, barbiturate-containing compounds discontinued
[3] = system: mu-receptor subfamily of opioid cell membrane binding/transduction sites; settings: cited from earlier work
[4] = Plasma methadone concentration versus daily oral methadone dose (FIG. 6, 8300 urine samples from 150 patients); settings: human, 70 mg/day
[5] = Urinary parameter-normalized urine methadone concentration, nu
[6] = Renal clearance / renal excretion of methadone from timed urine collections; settings: as a function of urine volume production rate; 12 control subjects

CCC(=O)C(CC(C)N(C)C)(c1ccccc1)c1ccccc1 (centres unmarked) [methadone]
stress-related headaches ([1]; patient one, 130 mg per day): slowly decreasing in severity and frequency
migraines ([1]; patient one, stabilized on 130 mg per day, plasma level above 135 ng/ml): ceased completely
migraine frequency and severity ([1]; patient two, gradual titration to 35 mg of methadone): slowly decayed in frequency and severity
plasma methadone levels over time [2]: increased in this patient over time
action at mu-receptor [3]: potent, and nearly pure (no interfering metabolites), agonist
concentration at 24 h [4]: 0.2 µg/mL
urinary parameter-normalized urine methadone concentration, nu ([5]; Table 1, compliant patient, dose 60): 7448 and 9473
urinary parameter-normalized urine methadone concentration, nu, mean ([5]; Table 1, mean of 12 tests, dose 60-70): 7427
urinary parameter-normalized urine methadone concentration, nu, mean ([5]; Table 2, patient two, mean of 12 tests, dose 45): 17936
urinary parameter-normalized urine methadone concentration, nu ([5]; Table 3, patient one (prior barbiturate use), 1991, dose 50): 2924
urinary parameter-normalized urine methadone concentration, nu ([5]; Table 3, patient one (prior barbiturate use), 1991, dose 65): 1367 and 911
urinary parameter-normalized urine methadone concentration, nu ([5]; Table 3, patient one (prior barbiturate use), 1991, dose 80): 1070
urinary parameter-normalized urine methadone concentration, nu, mean ([5]; Table 3, patient one, mean of 12 tests, dose 40-100): 1591
urinary parameter-normalized urine methadone concentration, nu ([5]; Table 4, patient one, barbiturates discontinued, 1992, dose 110): 6580 and 6703 and 10880 and 6025
urinary parameter-normalized urine methadone concentration, nu ([5]; Table 4, patient one, barbiturates discontinued, 1992, dose 120): 8970 and 6778 and 8074 and 11966 and 6031
urinary parameter-normalized urine methadone concentration, nu ([5]; Table 4, patient one, barbiturates discontinued, 1992, dose 130): 7728 and 5944 and 5117
urinary parameter-normalized urine methadone concentration, nu, mean ([5]; Table 4, patient one, mean of 12 tests, dose 110-130): 7566
urinary parameter-normalized urine methadone concentration, nu, mean ([5]; Table 6, Case #4, mean, dose 120-140): 6874
Pred (flag: nu outside acceptable statistical range) ([5]; Table 6, Case #4, dose 140): High
urinary parameter-normalized urine methadone concentration, nu, mean ([5]; Table 7, Case #5, mean of 13 tests, dose 130): 14502
Pred (flag: nu outside acceptable statistical range) ([5]; Table 7, Case #5, dose 130): LOW and HIGH
renal excretion rate during a typical day [6]: relatively constant

Oc1ccc2c3c1O[C@H]1[C@@H](O)CC[C@@]4(O)[C@@H](C2)N(CC2CCC2)CC[C@]314 [nalbuphine]
control of pain ([1]; patient one, self-administered IM, before methadone): failure
